Measured values from US20260297092A1, “PYRAZOLOPYRIMIDINE DERIVATIVES AS INHIBITORS OF NLRP3” (Takeda Pharmaceutical Company Limited, priority 2023, published 2026).

Key:
[1] = system: NLRP3 inflammasome (IL-1β production in THP-1 cells); assay: IL-1β TR-FRET Assay (percentage of inhibition at 300 nM, 6 μM or 10 μM); type: cell-based, human; conditions: Homo sapiens, LPS priming, ATP activation; for inhibition at 0.3 µM: THP-1, 300 nM, read-out: IL-1β inhibitory rate at 300 nM (%); for inhibition at 6 µM: THP-1, 6 μM, read-out: IL-1β inhibitory rate at 6 μM (%)
Procedure, shortened: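 Percent inhibition of IL-1β used DMSO wells as 0% and 3 μM MCC-950 wells as full inhibition, with supernatant read by HTRF. Beforehand, IFN-γ-differentiated (25 ng/mL, 24 h), LPS-primed (50 ng/mL, 24 h) THP-1 cells received compound 30 min before inflammasome activation by 20 mM ATP for 2 h.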

[2] = system: TNF-α (NF-κB pathway, THP-1 cells); assay: TNF-α Assay (IC50); type: cell-based, human; conditions: Homo sapiens, 600 ng/mL LPS, 3 hours
Procedure, shortened: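 Supernatant TNF-α quantified by ELISA after 3 h stimulation with 600 ng/mL LPS at 37 °C, following 30 min compound preincubation. Cells: IFN-differentiated (25 ng/mL, 24 h) THP-1 macrophages, 40,000/well, serum-free. IC50 by sigmoidal fit of % inhibition, with TPCA-1 as 100% control.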

SMILES	IC50 [2]	inhibition at 0.3 µM [1]	inhibition at 6 µM [1]
CCOc1nc2nn(-c3c(OCC)cc(C(F)(F)F)cc3C(F)F)cc2c(=O)[nH]1 [Example 95, 2-[2-(difluoromethyl)-6-ethoxy-4-(trifluoromethyl)phenyl]-6-ethoxy-2,5-dihydro-4H-pyrazolo[3,4-d]pyrimidin-4-one]	> 30 µM	72%	
CCOc1nc2nn(-c3ccc(C)cc3O)c(C)c2c(=O)[nH]1 [Example 127, 6-ethoxy-2-(2-hydroxy-4-methylphenyl)-3-methyl-2,5-dihydro-4H-pyrazolo[3,4-d]pyrimidin-4-one]	> 30 µM	98%	
Cc1cc(C)c(-n2cc3c(=O)[nH]c(O[C@H]4CCOC4)nc3n2)c(O)c1 [Example 14, 2-(2-hydroxy-4,6-dimethylphenyl)-6-{[(3S)-oxolan-3-yl]oxy}-2,5-dihydro-4H-pyrazolo[3,4-d]pyrimidin-4-one]	> 30 µM	96%	
COC(C)Cc1nc2nn(-c3c(C)cc(C)cc3O)cc2c(=O)[nH]1 (stereo not shown) [Example 27, 2-(2-hydroxy-4,6-dimethylphenyl)-6-(2-methoxypropyl)-2,5-dihydro-4H-pyrazolo[3,4-d]pyrimidin-4-one]	> 30 µM	94%	
CCOc1nc2nn(-c3ccc(C4CC4)cc3F)c(C)c2c(=O)[nH]1 [Example 111, 2-(4-cyclopropyl-2-fluorophenyl)-6-ethoxy-3-methyl-2,5-dihydro-4H-pyrazolo[3,4-d]pyrimidin-4-one]	> 30 µM	95%	
CCOc1nc2nn(-c3c(F)cc(C)c(F)c3C)cc2c(=O)[nH]1 [Example 92, 2-(3,6-difluoro-2,4-dimethylphenyl)-6-ethoxy-2,5-dihydro-4H-pyrazolo[3,4-d]pyrimidin-4-one]	> 30 µM	82%	
Cc1cc(C)c(-n2cc3c(=O)[nH]c(CC(C)(C)C)nc3n2)c(O)c1 [Example 68, 6-(2,2-dimethylpropyl)-2-(2-hydroxy-4,6-dimethylphenyl)-2,5-dihydro-4H-pyrazolo[3,4-d]pyrimidin-4-one]	0.279 µM	97%	
CCOc1nc2nn(-c3ccc(C)cc3OCC(F)F)cc2c(=O)[nH]1 [Example 98, 2-[2-(2,2-difluoroethoxy)-4-methylphenyl]-6-ethoxy-2,5-dihydro-4H-pyrazolo[3,4-d]pyrimidin-4-one]	> 30 µM	44%	

The next lines start with results.

IC50 [2]	SMILES	inhibition at 0.3 µM [1]	inhibition at 6 µM [1]
> 30 µM	Cc1cc(C)c(-n2cc3c(=O)[nH]c(CC4CCCO4)nc3n2)c(O)c1 (stereo not shown) [Example 33, 2-(2-hydroxy-4,6-dimethylphenyl)-6-[(oxolan-2-yl)methyl]-2,5-dihydro-4H-pyrazolo[3,4-d]pyrimidin-4-one]	97%	
> 30 µM	COCc1nc2nn(-c3c(C)cc(C4CC4)cc3C)cc2c(=O)[nH]1 [Example 166, 2-(4-cyclopropyl-2,6-dimethylphenyl)-6-(methoxymethyl)-2,5-dihydro-4H-pyrazolo[3,4-d]pyrimidin-4-one]	103%	
> 30 µM	CCOc1nc2nn(-c3c(C)cc(C4CC4)cc3Br)cc2c(=O)[nH]1 [Example 151, 2-(2-bromo-4-cyclopropyl-6-methylphenyl)-6-ethoxy-2,5-dihydro-4H-pyrazolo[3,4-d]pyrimidin-4-one]	98%	
> 30 µM	Cc1cc(C)c(-n2cc3c(=O)[nH]c(Cn4cccn4)nc3n2)c(O)c1 [Example 75, 2-(2-hydroxy-4,6-dimethylphenyl)-6-[(1H-pyrazol-1-yl)methyl]-2,5-dihydro-4H-pyrazolo[3,4-d]pyrimidin-4-one]	98%	
> 30 µM	Cc1cc(C2CC2)cc(C)c1-n1cc2c(=O)[nH]c(CC#N)nc2n1 [Example 317, [2-(4-cyclopropyl-2,6-dimethylphenyl)-4-oxo-4,5-dihydro-2H-pyrazolo[3,4-d]pyrimidin-6-yl]acetonitrile]		100%
> 30 µM	Cn1ccc(-c2nc3nn(-c4c(F)cc(C5CC5)cc4C(F)F)cc3c(=O)[nH]2)n1 [Example 299, 2-[4-cyclopropyl-2-(difluoromethyl)-6-fluorophenyl]-6-(1-methyl-1H-pyrazol-3-yl)-2,5-dihydro-4H-pyrazolo[3,4-d]pyrimidin-4-one]		99%
> 30 µM	CCOc1nc2nn(-c3c(C)cc(C)cc3O)cc2c(=O)[nH]1 [Example 1, 6-ethoxy-2-(2-hydroxy-4,6-dimethylphenyl)-2,5-dihydro-4H-pyrazolo[3,4-d]pyrimidin-4-one]	100%	
> 30 µM	CCn1ncc(-c2nc3nn(-c4c(C)cc(C5CC5)cc4C)cc3c(=O)[nH]2)n1 [Example 257, 2-(4-cyclopropyl-2,6-dimethylphenyl)-6-(2-ethyl-2H-1,2,3-triazol-4-yl)-2,5-dihydro-4H-pyrazolo[3,4-d]pyrimidin-4-one]		99%
> 30 µM	COCc1nc2nn(-c3c(C)cc(C)cc3O)cc2c(=O)[nH]1 [Example 28, 2-(2-hydroxy-4,6-dimethylphenyl)-6-(methoxymethyl)-2,5-dihydro-4H-pyrazolo[3,4-d]pyrimidin-4-one]	101%	
